Test results published in paper PMC7997369, “Assessment of the Multifunctional Behavior of Lupin Peptide P7 and Its Metabolite Using an Integrated Strategy” (Journal of Agricultural and Food Chemistry, 2020).

Key:
ACE = details: cited from earlier work; for in vitro ACE inhibitory activity at 0.5 mg/mL: hempseed hydrolysate peptides
Procedure: (§1) Moreover, when orally administered to spontaneously hypertensive rats (SHRs) at a dose of 30 mg/kg of body weight, LTFPG produces a fast and efficient decrease in systolic blood pressure with a maximum of −37 mmHg after 2 h. […] In particular, these phenomena have been invocated to explain the discrepancy observed between in vitro assays and in vivo results. For example, there are many reports in the literature on the ACE inhibitory activity of different food-derived peptides.[32] In all of these studies, the biochemical characterization is carried out using tests on the purified recombinant ACE enzymes from lung ...

[1] = test system: spontaneously hypertensive rats (SHRs); details: cited from earlier work
Procedure: as §1

[2] = test system: differentiated Caco-2 cell monolayers; test: Transepithelial transport and metabolism across differentiated Caco-2 cell monolayers; assay type: in vitro ADME, human; details: AP solutions of differentiated Caco-2 collected after 120 min; untargeted HPLC–Chip–MS/MS; × = detected
Procedure: For differentiation, Caco-2 cells were seeded on polycarbonate filters with a 12 mm diameter and 0.4 μm pore diameter (Transwell, Corning, Inc., Lowell, MA, U.S.A.) at a 3.5 × 10^5 cells/cm^2 density in complete medium supplemented with 10% FBS in both AP and BL compartments for 2 days to allow for the formation of a confluent cell monolayer. Starting from day 3 after seeding, cells were transferred to FBS-free medium in both compartments, supplemented with ITS [final concentration of 10 mg/L insulin (I), 5.5 mg/L transferrin (T), and 6.7 μg/L sodium selenite (S), GIBCO–Invitrogen, San Giuliano Milanese, Italy] only in the BL compartment, and allowed to differentiate for 18–21 days with regular medium changes 3 times weekly.[12]
The transepithelial electrical resistance (TEER) of differentiated Caco-2 cells was measured at 37 °C using the voltmeter apparatus Millicell (Millipore Co., Billerica, MA, U.S.A.), immediately before and at the end of the transport experiments. In addition, at the end of transport experiments, cells were incubated from the AP side with 1 mM phenol red in phosphate-buffered saline (PBS) containing Ca^2+ (0.9 mM) and Mg^2+ (0.5 mM) for 1 h at 37 °C, to monitor the paracellular permeability of the cell monolayer. The BL solutions were then collected, and NaOH (70 μL, 0.1 N) was added before reading the absorbance at 560 nm by a microplate reader Synergy H1 from Biotek (Winooski, VT, U.S.A.). Phenol red passage was quantified using a standard phenol red curve. Only filters showing TEER values and phenol red passages similar to untreated control cells were considered for peptide transport analysis.
Prior to experiments, the cell monolayer integrity and differentiation were checked by TEER measurement as described in detail above. Cells were then washed twice, and peptide transportation by intestinal cells was assayed. Transport experiments were performed in transport buffer solution (137 mM NaCl, 5.36 mM KCl, 1.26 mM CaCl2, 1.1 mM MgCl2, and 5.5 mM glucose) following conditions previously described.[13] To reproduce the pH conditions existing in vivo in the small intestinal mucosa, AP solutions were maintained at pH 6.0 (buffered with 10 mM morpholinoethanesulfonic acid) and BL solutions were maintained at pH 7.4 (buffered with 10 mM N-2-hydroxyethylpiperazine-N-4-[…]). Prior to transport experiments, cells were washed twice with 500 μL of PBS containing Ca^2+ and Mg^2+. Peptide transportation by mature Caco-2 cells was assayed by loading the AP compartment with P7 and/or LTFPG (500 μM) in the AP transport solution (500 μL) and the BL compartment with the BL transport solution (700 μL). The plates were incubated at 37 °C, and the BL solutions were collected at different time points (i.e., 15, 30, 60, 90, and 120 min) and replaced with fresh solutions prewarmed at 37 °C. All BL solutions together with the AP solutions collected at the end of the transport experiment were stored at −80 °C prior to analysis. Three independent transport experiments were performed, each in duplicate.
Quantitative analysis of P7 in the AP and BL samples were carried out by ion trap mass spectrometry (MS) in multiple reaction monitoring (MRM) mode, monitoring two of the most intense diagnostic transitions, after optimization of the acquisition parameters, such as retention time, MS profile, and tandem mass spectrometry (MS/MS) fragmentation spectrum.[14],[15] All further details regarding liquid chromatography–tandem mass spectrometry (LC–MS/MS) operating conditions and method validations are described in the Supporting Information.
The metabolic degradation products deriving from the hydrolytic activity of brush border membrane peptidases were investigated by an untargeted approach (for further details, see the Supporting Information). […]

**Q.** What does the source list for “FKGRYYP [peptide from meat-derived hydrolysates obtained using thermolysin]”?
**A.** IC50 (ACE; peptides from meat-derived thermolysin hydrolysates, read-out: IC50, in vitro ACE activity): 550 nM; effect in vivo on SHRs [1]: totally ineffective

**Q.** With IPAGV as the substance, how does the “in vitro ACE inhibitory activity at 0.5 mg/mL” value (ACE) read?
**A.** Its value is 60.0%.

**Q.** What about the “reduction of the BP of SHR” value [1] of the same substance?
**A.** Its value is −40.0 mmHg.

**Q.** With SVYT as the substance, how does the “in vitro ACE inhibitory activity at 0.5 mg/mL” value (ACE) read?
**A.** The value was 79.0%.

**Q.** For “TFPGSAED [AP metabolite of P7 produced by Caco-2 cells, attributed to leucine aminopeptidase]”, which “detected at the AP side, P7 tested within a mixture” value [2] is on record?
**A.** Its value is “×”.
